{
  "source": "patent US20240261236A1",
  "about": "“METHODS OF USING NMDA RECEPTOR ANTAGONISTS” (Seelos Therapeutics, Inc., priority 2021, published 2024)",
  "key": {"[1]": {"test_system": "adults with major depressive disorder (MDD) who are at imminent risk of suicide", "test": "S-STS CMCM clinician judgment, risk of suicide at this time", "format": "in vivo, human", "conditions": "90 mg IN+SOC; for S-STS CMCM score (range 0-9; risk of suicide at this time, FIGS. 20A-20B): 24 hours post-administration", "source_text": "The S-STS CMCM (version 01/01/19) is a clinician-rated outcome measure which assesses SI/B on a standard 22-item scale, as well as multiple patient and clinician-rated items. The first 16 items are rated on a Likert-type scale ranging from “not at all” (0 units) to “extremely” (4 units), where select scoring (i.e., 4 specific items are scored based on the highest score on 2 of those items) yields a total score ranging from 0 units to 52 units. The final 6 items are used only when the patient misses a visit and is unable to complete the scale; if that missed visit is due to attempted or completed suicide, the possible maximum score is 100. The CMCM also yields 5 different single-item global assessments: 1) subject-rated likelihood of a suicide attempt; 2) subject-rated treatment needed; 3) clinician global severity of suicidal impulses, thoughts, and behaviors; 4) clinician judgment of suicide risk at this time and level of management needed for suicidality; and 5) clinician judgment of subject's likelihood of making a suicide attempt or of dying by suicide in the next 7 days.\nThe secondary endpoints are the change from baseline at 24 hours, as well as at Day 16, in the following: • (1) S-STS total score • (2) MADRS Total at Day 16 (only) • (3) Clinical Global Impression (CGI) of Severity for SI/B (CGIS-SI/B) and Change in SI/B (CGIC-SI/B) • (4) Patient Global Impression (PGI) of Severity for SI/B (PGIS-SI/B) and Change in SI/B (PGIC-SI/B • (5) S-STS Clinician-Rated Global Severity of Suicidal Impulses, Thoughts, and Behaviors • (6) S-STS Clinician judgment of subject's risk of a suicide attempt or death by suicide at this time • (7) S-STS Clinician judgment of subject's likelihood (risk) of making a suicide attempt or of dying by suicide in the next 7 days • (8) S-STS Subject-rated global severity of suicidal impulses, thoughts, and behavior • (9) S-STS Subject-rated treatment needed score • (10) MADRS item 10 response rate (response ≤3 units) • (11) MADRS Total response (total score ≥50% reduction from baseline) • (12) MADRS Total remission (total score ≤12 units)"}, "[2]": {"test": "Hemodynamic effects (blood pressure), Phase 2 Part 1", "format": "in vivo, human", "conditions": "for Diastolic BP: baseline 79.0; for Systolic BP: baseline 121", "source_text": "The study schedule is identical for Parts 1 and 2. After admission to the emergency room or hospital, each subject will participate in a 1 to 2 day screening phase, a 16-day treatment phase including SOC during which study drug will be administered 2 times per week, for a total of 5 doses across the 16-day treatment period and a 2-week safety follow-up phase for a total of up to 5 weeks of study participation. Subjects will be treated as inpatients for approximately 7 days (including screening), and assuming the subject meets readiness for discharge criteria, will be discharged on Day 6 to continue the trial as outpatients, provided it is clinically appropriate to do so. Subjects will return to the clinic to receive study drug and to undergo study assessments 2 times per week until Day 16. Subjects will be evaluated for efficacy using multiple psychometric scales and for safety using clinical laboratory assessments, electrocardiograms (ECGs), vital signs, and physical examinations. After the last dose of study drug, subjects will continue to be monitored for safety for 2 weeks, including 4 in-person safety follow-up visits on Days 19, 22, 25/26, and 29/30."}, "[3]": {"conditions": "Leung and Baillie 1986; cited from earlier work"}, "[4]": {"test_system": "adults with major depressive disorder (MDD) who are at imminent risk of suicide", "test": "C-SSRS, Phase 2 Part 1", "conditions": "90 mg IN+SOC; for C-SSRS score (yes or no) for suicidal ideation: 24 hours post-administration, baseline yes"}, "[5]": {"test_system": "adults with major depressive disorder (MDD) who are at imminent risk of suicide", "test": "CADSS dissociation, Phase 2 Part 1"}, "[6]": {"test_system": "adults with major depressive disorder (MDD) who are at imminent risk of suicide", "test": "Treatment-emergent adverse events, Phase 2 Part 1"}},
  "data": [
    {"smiles": "CNC1(c2ccccc2Cl)CCCCC1=O", "note": "(racemic) [intranasal racemic ketamine, 1:1 mixture of the two enantiomers of ketamine: (R)-2-(2-chlorophenyl)-2-(methylamino)cyclohexanone and (S)-2-(2-chlorophenyl)-2-(methylamino)cyclohexanone]", "values": [
      {"measurement": "S-STS CMCM score (range 0-9; risk of suicide at this time, FIGS. 20A-20B)", "setting": "[1]; Subject 1, baseline 7 units", "result": 3, "unit": "units"},
      {"measurement": "S-STS CMCM score (range 0-9; risk of suicide at this time)", "setting": "[1]; Subject 1, Day 9", "result": 2, "unit": "units"},
      {"measurement": "S-STS CMCM score (range 0-9; risk of suicide at this time, FIGS. 20A-20B)", "setting": "[1]; Subject 2, from 7 units", "result": 3, "unit": "units"},
      {"measurement": "S-STS CMCM score (range 0-9; risk of suicide at this time)", "setting": "[1]; Subject 2, Day 9", "result": "zero"},
      {"measurement": "S-STS CMCM score (range 0-9; risk of suicide at this time)", "setting": "[1]; Subjects 1 and 2, Day 8", "result": 2, "unit": "units"},
      {"measurement": "Diastolic BP", "setting": "[2]; 1 hour post first dose", "result": 80.9},
      {"measurement": "Systolic BP", "setting": "[2]; 1 hour post first dose", "result": 125.8},
      {"measurement": "Diastolic BP", "setting": "[2]; 2 hours post first dose", "result": 78.5},
      {"measurement": "Systolic BP", "setting": "[2]; 2 hours post first dose", "result": 121.3},
      {"measurement": "anesthetic activity", "setting": "[3]", "result": "anesthetic activity"},
      {"measurement": "C-SSRS score (yes or no) for suicidal ideation", "setting": "[4]; Subject 1", "result": "no"},
      {"measurement": "C-SSRS score (yes or no) for suicidal ideation", "setting": "[4]; Subject 2", "result": "no"},
      {"measurement": "C-SSRS scores for suicidal ideation and suicidal behavior", "setting": "[4]; both subjects, remainder of the study", "result": "no"},
      {"measurement": "CADSS score", "setting": "[5]; 90 mg IN+SOC, Subject 1, all assessments, threshold for dissociation >4 units", "result": "zero"},
      {"measurement": "CADSS score", "setting": "[5]; 90 mg IN+SOC, Subject 2, 40 minutes post-administration", "result": 2, "unit": "units"},
      {"measurement": "CADSS score", "setting": "[5]; 90 mg IN+SOC, Subject 2, 1 hour post-administration", "result": "zero"},
      {"measurement": "clinically relevant dissociation", "setting": "[5]; 90 mg IN+SOC, Subjects 1 and 2", "result": "neither subject exhibited clinically relevant dissociation"},
      {"measurement": "clinically meaningful sedation or dissociation", "setting": "[5]; 90 mg IN+SOC, entire patient cohort to the Day 29/30 endpoint", "result": "no clinically meaningful sedation or dissociation"},
      {"measurement": "CADSS change from baseline (at 40 minutes)", "setting": "[5]; Day 4 (after second dose)", "result": 2.3},
      {"measurement": "CADSS change from baseline (at 40 minutes)", "setting": "[5]; Day 8 (after third dose)", "result": 0.4},
      {"measurement": "subjects with no dissociation (total CADSS score >4 units = dissociation)", "setting": "[5]; Days 1 and 4", "result": "four"},
      {"measurement": "subjects reporting dissociation", "setting": "[5]; after Day 4 (on Day 11 at 40 minutes), 7 subjects", "result": 1, "unit": "subject"},
      {"measurement": "CADSS change from baseline (at 40 minutes)", "setting": "[5]; after first dose", "result": 3.8},
      {"measurement": "serious adverse events", "setting": "[6]; 90 mg IN+SOC, Part 1", "result": "no serious adverse events"},
      {"measurement": "severity of adverse events", "setting": "[6]; 90 mg IN+SOC, Part 1", "result": "mild or moderate"},
      {"measurement": "subjects who experienced a treatment-emergent adverse event (TEAE)", "setting": "[6]; 17 subjects", "result": 47, "unit": "%"},
      {"measurement": "tolerability", "setting": "[6]; Part 1", "result": "well tolerated"},
      {"measurement": "vital sign or blood pressure-related AEs", "setting": "[6]; Part 1", "result": "no vital sign or blood pressure-related AEs were reported"},
      {"measurement": "TEAE feeling abnormal", "setting": "[6]; n=2", "result": 11.8, "unit": "%"},
      {"measurement": "TEAE nausea", "setting": "[6]; n=2", "result": 11.8, "unit": "%"},
      {"measurement": "TEAE sedation", "setting": "[6]; n=2", "result": 11.8, "unit": "%"},
      {"measurement": "TEAE dizziness", "setting": "[6]; n=3", "result": 17.6, "unit": "%"},
      {"measurement": "TEAE headache", "setting": "[6]; n=4", "result": 23.5, "unit": "%"}
    ]}
  ]
}
